Data reported in paper PMC11855827, “High-Throughput Screening of Five Compound Libraries for Anthelmintic Activity and Toxicity Leads to the Discovery of Two Flavonoid Compounds” (International Journal of Molecular Sciences, 2025).

System: C. elegans
Conditions: Table S2, C. elegans SS assay, 110 μM, averages of 4 data points

SMILES	Percentage of motility inhibition 0 h	Percentage of motility inhibition 24 h
COc1cc(-c2coc3c([C@@H]4O[C@H](CO)[C@@H](O)[C@H](O)[C@H]4O)c(O)ccc3c2=O)ccc1O [3'‐Methoxypuerarin]	11%	51%
COc1ccc(-c2oc3c(OC)c(OC)c(OC)c(OC)c3c(=O)c2OC)cc1OC [3,5,6,7,8,3',4'‐Heptemthoxyflavone]	34%	6%
COc1cc(OC)c2c(=O)c(OC)c(-c3ccc(OC)c(OC)c3)oc2c1 [3,5,7,3′,4′‐Pentamethoxyflavone]	2%	24%
O=c1c(O)c(-c2ccc(O)cc2)oc2cc(O)ccc12 [3,7,4'‐Trihydroxyflavone]	0%	16%
CC1(COC(=O)c2ccccc2)CCC2(C)CCC3(C)C4=CCC5C(C)(CCC(OC(=O)c6ccccc6)C5(C)C)C4=CCC3(C)C2C1 (centres unmarked) [3,29-O-Dibenzoyloxykarounidiol]	15%	9%
CC(=O)O[C@@H]1CC[C@@]2(C)[C@@H](CC[C@]3(C)[C@@H]2CC=C2[C@@H]4[C@@H](C)[C@H](C)CC[C@]4(C)CC[C@]23C)[C@@]1(C)C(=O)O [3-Acetyl-beta-boswellic acid]	15%	21%
CC(C)=CCCC(C(=O)O)C1CCC2(C)C3=C(CCC12C)C1(C)CCC(=O)C(C)(C)C1CC3 (centres unmarked) [3-Dehydrotrametenolic acid]	17%	37%
CC1(C)CC[C@]2(C(=O)O)CC[C@]3(C)C(=CC[C@@H]4[C@@]5(C)CC[C@@H](O)C(C)(C)[C@@H]5CC[C@]43C)[C@@H]2C1 [3-Epioleanolic acid]	29%	34%
C[C@H]1[C@H](C)CC[C@]2(C(=O)O)CC[C@]3(C)C(=CC[C@@H]4[C@@]5(C)CC[C@H](O)C(C)(C)[C@@H]5CC[C@]43C)[C@H]12 [3-Epiursolic Acid]	3%	18%
CC(=O)O[C@H]1CC[C@]2(C)C3=C(CC[C@H]2C1(C)C)[C@]1(C)C[C@@H](O)[C@H]([C@@H](CCC=C(C)C)C(=O)O)[C@@]1(C)CC3 [3-O-Acetyl-16α-hydroxytrametenolic acid]	7%	10%
CC(=O)OC1CCC2(C)C(CCC3(C)C2CC=C2C4CC(C)(C)CCC4(C)CCC23C)C1(C)C(=O)O (stereo not drawn) [3-O-Acetyl-α-boswellic acid]	20%	14%
CC1(C)CC[C@]2(C(=O)O)[C@H](O)C[C@]3(C)C(=CC[C@@H]4[C@@]5(C)C[C@H](O)[C@H](O[C@@H]6O[C@H](CO)[C@@H](O)[C@H](O)[C@H]6O)C(CO)(CO)[C@@H]5CC[C@]43C)[C@@H]2C1 [3-O-Beta-D-Glucopyranosylplatycodigenin]	0%	0%
CSCCC(=O)O [3‐(Methylthio)propionic acid]	9%	0%
CCN1C[C@]2(COC)CC[C@H](OC)C34C1C([C@H](OC)[C@@H]32)[C@]1(OC(C)=O)[C@@H]2[C@H]4C[C@@](O)([C@@H]2OC(=O)c2ccccc2)[C@@H](OC)[C@@H]1O [3‐Deoxyaconitine]	9%	0%
Oc1cccnc1 [3‐Hydroxypyr idine]	18%	19%
Cc1ncccc1O [3‐Hydroxy‐2‐methylpyridine]	15%	0%
O=C(O)Cc1c[nH]c2ccccc12 [3‐Indoleacetic acid]	4%	11%
Cl.Cl.Cn1cncc1CCN [3‐Methylhistamine (dihydrochloride)]	4%	0%
COc1c(-c2ccccc2)oc2cc(O)cc(O)c2c1=O [3‐O‐Methylgalangin]	0%	4%
O=c1cc(-c2ccc(O)cc2)oc2cccc(O)c12 [4',5‐Dihydroxyflavone]	39%	6%
COc1ccc(-c2coc3cc(OC)ccc3c2=O)cc1 [4',7‐Dimetho xyisoflavone]	21%	27%
COc1ccc(-c2coc3c([C@@H]4O[C@H](CO)[C@@H](O)[C@H](O)[C@H]4O)c(O)ccc3c2=O)cc1 [4'‐Methoxypuerarin]	14%	3%
COCc1c(CO)cnc(C)c1O [4'‐O‐Methylpyridoxine]	26%	1%
COc1ccc(/C=C/C(=O)c2ccc(OC)cc2)cc1 [4,4'‐Dimetho xychalcone]	24%	3%
CC1=COC(=O)[C@H]2[C@@H]1CC[C@@H]2C [4aα,7α,7aα-Nepetalactone]	17%	16%

SMILES	Percentage of motility inhibition 0 h	Percentage of motility inhibition 24 h
CN1C[C@H](O)C[C@H]1C(=O)O [4‐Hydroxyhygric acid]	21%	0%
CC1(C)C=Cc2c(ccc(C(=O)/C=C/c3ccc(O)cc3)c2O)O1 [4‐Hydroxylonchocarpin]	11%	9%
O=Cc1c[nH]c2cccc(O)c12 [4‐Hydroxy‐1H‐indole‐3‐carbaldehyde]	23%	5%
O=c1cc(-c2ccc(O)cc2)oc2c(C3O[C@H](CO)[C@@H](O[C@@H]4O[C@H](CO)[C@@H](O)[C@H](O)[C@H]4O)[C@H](O)[C@H]3O)c(O)cc(O)c12 (some centres unmarked) [4”‐O‐Glucosylvitexin]	0%	0%
COc1cc(OC)c2c(=O)cc(-c3ccc(OC)c(OC)c3)oc2c1 [5,7,3',4'‐Tetramethoxyflavone]	0%	0%
COc1ccc(-c2cc(=O)c3c(OC)cc(OC)cc3o2)cc1 [5,7,4'‐Trimethoxyflavone]	0%	1%
O=c1ccoc2cc(O)cc(O)c12 [5,7‐Dihydroxychromone]	0%	0%
COc1cc(OC)c2c(=O)cc(-c3ccccc3)oc2c1 [5,7‐Dimethoxyflavone]	37%	15%
COc1cc(OC)c2c(=O)cc(-c3ccc(O)c(O)c3)oc2c1 [5,7‐Dimethoxyluteolin]	24%	13%
C=C1CCC2C(C=C(C)C(=O)C3(OC(C)=O)CC(C)C(OC(=O)c4ccccc4)C3C1OC(C)=O)C2(C)C (centres unmarked) [5,15-Diacetyl-3-benzoyllathyrol]	30%	32%
CC(=O)[C@H]1CC[C@H]2[C@@H]3CC[C@H]4CC(=O)CC[C@]4(C)[C@H]3CC[C@]12C [5a‐Pregnane‐3,20‐dione]	2%	17%
C=C(C(=O)O)[C@@H]1CC[C@@]2(C)CCCC(=C)[C@]2(O)C1 [5α-Hydroxycostic acid]	13%	18%
COc1ccc(-c2cc(=O)c3c(O)c(OC)c(OC)cc3o2)cc1OC [5‐Desmethylsinensetin]	2%	11%
O=C1Cc2cc(O)ccc2N1 [5‐Hydroxyoxindole]	15%	10%
COc1ccc2[nH]cc(CCO)c2c1 [5‐Methoxytryptophol]	25%	7%
COc1cc(C)c2c(=O)c(-c3ccccc3)coc2c1 [5‐Methyl‐7‐methoxyisoflavone]	16%	0%
COc1ccc(-c2cc(=O)c3c(O)c(OC)c(OC)c(OC)c3o2)cc1OC [5‐O‐Demethylnobiletin]	26%	29%
O=C(O)c1cnc(O)cn1 [5‐hydroxypyr azine‐2‐carboxylic acid]	28%	1%
COc1cc2c(=O)c(-c3ccc(O)cc3)coc2cc1O[C@@H]1O[C@H](COC(C)=O)[C@@H](O)[C@H](O)[C@H]1O [6''‐O‐Acetylglycitin]	4%	5%
C=C[C@@H]1C2=CCOC(=O)C2=CO[C@H]1O[C@@H]1O[C@H](CO[C@@H]2O[C@H](CO)[C@@H](O)[C@H](O)[C@H]2O)[C@@H](O)[C@H](O)[C@H]1O [6'-O-beta-D-Glucosylgentiopicroside]	34%	15%
CCN1C[C@]2(C)CC[C@H](OC)C34C5C[C@@H]6CC[C@@](O)(C5C(=O)O6)C(C13)[C@@H](OC(=O)c1ccccc1)[C@@H]42 [6‐Benzoylheteratisine]	16%	23%
COc1ccc(-c2cc(=O)c3c(OC)cc(OC)c(OC)c3o2)cc1 [6‐Demethoxytangeretin]	31%	8%
O=c1cc(-c2ccc(O)c(O)c2)oc2cc(O[C@@H]3O[C@H](CO)[C@@H](O)[C@H](O)[C@H]3O)c(O)c(O)c12 [6‐Hydroxyluteolin 7‐glucoside]	0%	10%
Cc1ccc(C(N)=O)cn1 [6‐Methylni cotinamid e]	0%	0%
